Where two headings read alike, the source gives them in different places.
Test system: older patients with symptomatic heart failure
Details: for hospitalized overall for any reason: 48-week study observation period, p=0.018
Description: The study was approved by institutional review boards at each site; all patients gave written informed consent. An independent Data and Safety Monitoring Committee monitored the progress of the study. See Pitt B, Chang P, Timmermans P. Angiotensin II receptor antagonists in heart failure: Rationale and design of the Evaluation of Losartan in the Elderly (ELITE) Trial. Cardiovascular Drugs and Therapy 1995; 9: 693-700.
A detailed description of enrollment and exclusion criteria and study design has been presented previously. See Pitt B, Chang P, Timmermans P. Angiotensin II receptor antagonists in heart failure: Rationale and design of the Evaluation of Losartan in the Elderly (ELITE) Trial. Cardiovascular Drugs and Therapy 1995; 9: 693-700.
Titration generally occurred at 7-day intervals as tolerated. Treatment with all other concomitant cardiovascular therapies was permitted with the exception of open-label ACE inhibitors. Randomized patients were stratified by age (less than 70 and 70 years or greater).
Clinical assessments were performed weekly during titration and at three-month intervals thereafter. Laboratory evaluations were performed at weeks three, six, and twelve, and at three month intervals thereafter.
See Example 2) Hypotension-related symptoms, clinically important serum potassium increases (≥ 0.5 mEq/L), and cough, all originally secondary endpoints, were moved to tertiary endpoints. All deaths (including cause of death) and hospitalizations were adjudicated by an independent Clinical Endpoint Adjudication Committee, blinded to study treatment (see panel for mortality classification). Other prospectively-defined measures included myocardial infarction/hospitalization for unstable angina, worsening of heart failure, New York Heart Association functional classification, discontinuation from the study due to study drug intolerance, changes in neurohormonal profile.
• Sudden Cardiac Death: Death occurring without warning or within 1 hour of symptoms • Death due to Progressive Heart Failure: Death preceded by worsening signs and/or symptoms of heart failure, including cardiogenic shock • Fatal Myocardial Infarction: Death associated with autopsy-verified myocardial infarction or death within 28 days of a hospital-verified acute myocardial infarction provided no other cardiac or non-cardiac cause of death is found • Death due to Other Cardiac Causes: Death due to other cardiac causes, such as arrhythmia • Death due to Other Vascular Causes: Death due to vascular events such as stroke, pulmonary embolus, ruptured aneurysm, etc. • Death due to non-cardiovascular causes: Death not due to any cardiac or vascular events
The power and sample-size estimates for this study have been described. See Pitt B, Chang P, Timmermans P. Angiotensin II receptor antagonists in heart failure: Rationale and design of the Evaluation of Losartan in the Elderly (ELITE) Trial. Cardiovascular Drugs and Therapy 1995; 9: 693-700. Analysis of renal dysfunction (increases in serum creatinine) was based upon a modified intent-to-treat population; i.e., all patients were analyzed according to their randomization group, and an endpoint was declared only if initial and confirmatory elevations occurred while on double-blind therapy. Patients who discontinued from the study without meeting this endpoint were censored in the time-to-event analysis at the time of study discontinuation.
Analyses of deaths and heart failure hospitalizations (adjudicated endpoints) were based on an intent-to-treat population; all patients discontinued prematurely were followed through the specified 48-week period of the study. Patients not meeting the endpoint were censored in the time-to-event analysis either at the time of study completion (for patients who completed) or at the end of the 48-week follow-up period (for patients who discontinued).
For all time-to-event data, survival analyses were based upon the log-rank test.

## C[C@H](CS)C(=O)N1CCC[C@H]1C(=O)O [Captopril, captopril, reference compound]
Number of patients
  hospitalized overall for any reason: 119 patients
  Fatal myocardial infarction: four
  hospitalized overall for any reason: 32.2%
48 weeks
  incidence of heart failure hospitalizations: 5.7%
human, in vivo
  incidence of death due to progressive heart failure: less than one
intent-to-treat, 48 weeks
  Cause of death: Cardiovascular, Fatal Myocardial Infarction: 4 ( 1.1) number (percent) of patients
  Cause of death: Cardiovascular, Other Vascular: 5 ( 1.4) number (percent) of patients
  Cause of death: Cardiovascular, Progressive Heart Failure: 1 ( 0.3) number (percent) of patients
  Cause of death: Cardiovascular, Sudden Death: 14 ( 3.8) number (percent) of patients
  Cause of death: Non-cardiovascular: 8 ( 2.2) number (percent) of patients
  Death and/or Hospitalization for Heart Failure: 49 (13.2) number (percent) of patients
  Hospitalization for Heart Failure: 21 ( 5.7) number (percent) of patients
  total mortality: 32 ( 8.7) number (percent) of patients
Number of patients in each treatment group
  died of progressive heart failure: one
Number of patients, p=0.035
  total mortality: 32 patients
Number of patients, p=0.043
  sudden cardiac death: 14 patients
Of 352 losartan-treated, of 370 captopril-treated patients
  death and/or heart failure hospitalizations: 49 patients
Percent of patients, p=0.075
  death and/or heart failure hospitalizations: 13.2%
Subpopulation of female patients: of 118 losartan-treated, of 122 captopril-treated
  female patients died: 8 patients
Week 48, versus 66 percent (losartan) and 64 percent (captopril) at baseline
  patients classified as New York Heart Association Class I or II at the end of the study: 82%
